Assay results from ChEMBL document CHEMBL1158384, “Design, synthesis, and biological evaluation of 1,5-benzothiazepine-4-one derivatives targeting factor VIIa/tissue factor” (Bioorg Med Chem Lett, 2009).

Legend:
Prothrombin = Prothrombin (Homo sapiens, UniProt P00734); assay: Inhibition of human factor 2a by spectrophotometry
[1] = molecular target: Coagulation factor VII/tissue factor (Homo sapiens, UniProt P08709); assay: Inhibition of human tissue factor/factor 7a; assay type: protein-complex assay
Sequence of Coagulation factor VII/tissue factor (P08709 61-212 limits assumed): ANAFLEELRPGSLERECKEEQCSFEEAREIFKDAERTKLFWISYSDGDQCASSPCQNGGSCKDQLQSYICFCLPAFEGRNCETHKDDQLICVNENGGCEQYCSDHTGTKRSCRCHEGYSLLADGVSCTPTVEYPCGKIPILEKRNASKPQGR
Sequence of Coagulation factor VII/tissue factor (P08709 213-466 limits assumed): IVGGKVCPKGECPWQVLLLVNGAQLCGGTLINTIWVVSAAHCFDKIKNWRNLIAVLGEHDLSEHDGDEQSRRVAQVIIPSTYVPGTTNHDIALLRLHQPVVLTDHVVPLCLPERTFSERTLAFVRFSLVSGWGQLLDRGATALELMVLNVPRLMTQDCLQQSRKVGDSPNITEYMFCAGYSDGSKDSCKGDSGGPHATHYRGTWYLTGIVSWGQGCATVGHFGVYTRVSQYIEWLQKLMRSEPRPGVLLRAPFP
Sequence of Coagulation factor VII/tissue factor (P13726 33-295 partner limits assumed): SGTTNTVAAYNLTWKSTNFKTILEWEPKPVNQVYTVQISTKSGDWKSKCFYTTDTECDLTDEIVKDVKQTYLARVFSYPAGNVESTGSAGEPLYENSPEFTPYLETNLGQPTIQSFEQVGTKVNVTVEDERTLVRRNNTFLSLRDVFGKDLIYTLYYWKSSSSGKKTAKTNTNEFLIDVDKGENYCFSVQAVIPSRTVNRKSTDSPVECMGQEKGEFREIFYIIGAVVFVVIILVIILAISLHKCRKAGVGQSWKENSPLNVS

Coagulation factor X = Coagulation factor X (Homo sapiens, UniProt P00742); assay: Inhibition of human factor 10a by spectrometry
Sequence of Coagulation factor X (P00742 41-179 limits assumed): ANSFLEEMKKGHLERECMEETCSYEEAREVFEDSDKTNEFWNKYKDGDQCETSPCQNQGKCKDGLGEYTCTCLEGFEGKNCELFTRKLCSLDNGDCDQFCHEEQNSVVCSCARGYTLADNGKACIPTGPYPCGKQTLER
Sequence of Coagulation factor X (P00742 235-488 limits assumed): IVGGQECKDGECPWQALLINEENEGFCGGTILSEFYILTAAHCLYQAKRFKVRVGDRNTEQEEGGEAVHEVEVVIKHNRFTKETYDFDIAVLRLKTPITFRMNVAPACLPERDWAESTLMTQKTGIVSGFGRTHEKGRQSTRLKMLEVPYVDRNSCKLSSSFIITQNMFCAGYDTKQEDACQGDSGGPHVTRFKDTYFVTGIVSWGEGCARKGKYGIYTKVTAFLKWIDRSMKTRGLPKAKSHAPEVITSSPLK

| Structure (SMILES) | IC50 (Prothrombin) [µM] | IC50 [1] [µM] | IC50 (Coagulation factor X) [nM] |
| --- | --- | --- | --- |
| CC(=O)N[C@@H]1CSc2ccccc2N(CC(=O)NCc2ccc(C(=N)N)cc2)C1=O |  | 90 |  |
| N=C(N)c1ccc(CNC(=O)CN2C(=O)[C@@H](NS(=O)(=O)Cc3ccccc3)CSc3ccccc32)cc1 | 48 | 27.9 |  |
| N=C(N)c1ccc(CNC(=O)CN2C(=O)[C@H](NCC(=O)O)CSc3ccccc32)cc1 |  | 15.9 |  |
| N=C(N)c1ccc(CNC(=O)CN2C(=O)[C@H](NS(=O)(=O)Cc3ccccc3)CSc3ccc(CC(N)C(=O)O)cc32)cc1 (stereo partly drawn) | 33 | 1.5 | 1050 |
| N=C(N)c1ccc(CNC(=O)CN2C(=O)[C@H](NS(=O)(=O)Cc3ccccc3)CSc3ccc(-c4ccccc4)cc32)cc1 |  | 10.9 |  |
| N=C(N)c1ccc(CNC(=O)CCN2C(=O)[C@H](NCC(=O)O)CSc3ccccc32)cc1 |  | 95 |  |
| Cc1nc(N)ccc1CNC(=O)CCN1C(=O)[C@H](NS(=O)(=O)Cc2ccccc2)CSc2ccccc21 |  | > 33 |  |
| N=C(N)c1ccc(CNC(=O)CN2C(=O)[C@H](NC(=O)C(c3ccccc3)c3ccccc3)CSc3ccccc32)cc1 |  | > 33 |  |
| N=C(N)c1ccc(CNC(=O)CN2C(=O)[C@H](NS(=O)(=O)Cc3ccccc3)CSc3ccc(-c4cccc([N+](=O)[O-])c4)cc32)cc1 | 0.79 | 5.96 | 2810 |
| N=C(N)c1ccc(CNC(=O)CCN2C(=O)[C@H](NC(=O)CCC(=O)O)CSc3ccccc32)cc1 |  | 61 |  |
| CC(=O)N[C@H]1CSc2ccccc2N(CCC(=O)NCc2ccc(C(=N)N)cc2)C1=O |  | 168 |  |
| N=C(N)c1ccc(CNC(=O)CN2C(=O)[C@H](NS(=O)(=O)Cc3ccccc3)CSc3cc(CN)ccc32)cc1 | 10 | 5.6 | 800 |
| N=C(N)c1ccc(CNC(=O)CN2C(=O)[C@H](NS(=O)(=O)Cc3ccccc3)CSc3cc(N)ccc32)cc1 | 7.05 | 4.86 | 1630 |
| N=C(N)c1ccc(CNC(=O)CN2C(=O)[C@H](NS(=O)(=O)Cc3ccccc3)CSc3ccc(CCN)cc32)cc1 | 6.23 | 1.32 | 2790 |
| N=C(N)c1ccc(CNC(=O)CN2C(=O)[C@H](NS(=O)(=O)Cc3ccccc3)CSc3ccc(N)cc32)cc1 | 1.89 | 2.3 | 1520 |
| N=C(N)c1ccc(CNC(=O)CN2C(=O)[C@H](NS(=O)(=O)Cc3ccccc3)CSc3ccc(C(=O)O)cc32)cc1 |  | 4.67 |  |
| N=C(N)c1ccc(CNC(=O)CN2C(=O)[C@@H](NC(=O)CCC(=O)O)CSc3ccccc32)cc1 | > 300 | 27.7 |  |
| CC(=O)N[C@@H]1CSc2ccccc2N(CC(=O)NCc2ccc(N)nc2C)C1=O | 133 | > 300 |  |
| N=C(N)c1ccc(CNC(=O)CN2C(=O)C(NC(=O)CCC(=O)O)CSc3ccccc32)cc1 (single isomer, unassigned) | 300 | 81 |  |
| Cc1nc(N)ccc1CNC(=O)CCN1C(=O)[C@H](NCC(=O)O)CSc2ccccc21 |  | > 33 |  |
| N=C(N)c1ccc(CNC(=O)CN2C(=O)[C@H](NS(=O)(=O)Cc3ccccc3)CSc3ccc(CC(=O)O)cc32)cc1 | 33 | 2.98 | 210 |

The remaining lines, values ahead:

| IC50 (Prothrombin) [µM] | IC50 [1] [µM] | IC50 (Coagulation factor X) [nM] | Structure (SMILES) |
| --- | --- | --- | --- |
| 88 | > 300 |  | Cc1nc(N)ccc1CNC(=O)CN1C(=O)[C@@H](N)CSc2ccccc21 |
|  | > 33 |  | N=C(N)c1ccc(CNC(=O)CN2C(=O)[C@H](NS(=O)(=O)Cc3ccccc3)CSc3cc(C(=O)O)ccc32)cc1 |
|  | > 33 |  | Cc1nc(N)ccc1CNC(=O)CN1C(=O)[C@H](NCC(=O)O)CSc2ccccc21 |
| 10 | 6.86 | 3230 | N=C(N)c1ccc(CNC(=O)CN2C(=O)[C@H](NS(=O)(=O)Cc3ccccc3)CSc3ccc(-c4cccc(N)c4)cc32)cc1 |
| 100 | 37.3 |  | CC(=O)N[C@H]1CSc2ccccc2N(CC(=O)NCc2ccc(C(=N)N)cc2)C1=O |
|  | 13.1 |  | N=C(N)c1ccc(CNC(=O)CN2C(=O)[C@H](NS(=O)(=O)Cc3ccccc3)CSc3cc(CCC(=O)O)ccc32)cc1 |
|  | 233 |  | CC(=O)N[C@@H]1CSc2ccccc2N(CCC(=O)NCc2ccc(C(=N)N)cc2)C1=O |
| > 33 | 166 |  | N=C(N)c1ccc(CNC(=O)CCN2C(=O)[C@@H](NC(=O)CCC(=O)O)CSc3ccccc32)cc1 |
| 10 | 1.86 | 1720 | N=C(N)c1ccc(CNC(=O)CN2C(=O)[C@H](NS(=O)(=O)Cc3ccccc3)CSc3ccc(CN)cc32)cc1 |
| 88 | > 300 |  | Cc1nc(N)ccc1CNC(=O)CN1C(=O)[C@H](N)CSc2ccccc21 |
|  | 14.3 |  | N=C(N)c1ccc(CNC(=O)CN2C(=O)[C@H](NS(=O)(=O)Cc3ccccc3)CSc3cc(CC(=O)O)ccc32)cc1 |
| 33 | > 330 |  | N=C(N)c1ccc(CNC(=O)CCN2C(=O)[C@@H](NCC(=O)O)CSc3ccccc32)cc1 |
| 87 | 24.4 |  | N=C(N)c1ccc(CNC(=O)CN2C(=O)[C@@H](N)CSc3ccccc32)cc1 |
|  | > 33 |  | Cc1nc(N)ccc1CNC(=O)CN1C(=O)[C@H](NS(=O)(=O)Cc2ccccc2)CSc2ccccc21 |
| 0.37 | 2.16 | 3280 | N=C(N)c1ccc(CNC(=O)CN2C(=O)C(NS(=O)(=O)Cc3ccccc3)CSc3ccccc32)cc1 (single isomer, unassigned) |
|  | 63 |  | N=C(N)c1ccc(CNC(=O)CCN2C(=O)[C@H](NS(=O)(=O)Cc3ccccc3)CSc3ccccc32)cc1 |
| 130 | > 300 |  | CC(=O)N[C@H]1CSc2ccccc2N(CC(=O)NCc2ccc(N)nc2C)C1=O |
|  | 19.7 |  | N=C(N)c1ccc(CNC(=O)CCN2C(=O)[C@@H](NS(=O)(=O)Cc3ccccc3)CSc3ccccc32)cc1 |
| 33 | 2.64 | 2030 | N=C(N)c1ccc(CNC(=O)CN2C(=O)[C@H](NS(=O)(=O)Cc3ccccc3)CSc3ccc(CCC(=O)O)cc32)cc1 |
